Reference: patent publication US11332459B2 (TEIJIN PHARMA LIMITED, priority 2017, dated 2022)
Where a name gives a salt, the structure may show the parent alone.

What follows are compounds tested against T1, human TRPC6 (Homo sapiens, UniProt Q9Y210) (assay: TRPC6 calcium flux assay (FLIPR, OAG-stimulated calcium influx)). Settings: HEK293 cells stably transfected with human TRPC6, read-out: hTRPC6 Potency.
T1 construct: expressed in transfected cells
T1 sequence (Q9Y210 1-931): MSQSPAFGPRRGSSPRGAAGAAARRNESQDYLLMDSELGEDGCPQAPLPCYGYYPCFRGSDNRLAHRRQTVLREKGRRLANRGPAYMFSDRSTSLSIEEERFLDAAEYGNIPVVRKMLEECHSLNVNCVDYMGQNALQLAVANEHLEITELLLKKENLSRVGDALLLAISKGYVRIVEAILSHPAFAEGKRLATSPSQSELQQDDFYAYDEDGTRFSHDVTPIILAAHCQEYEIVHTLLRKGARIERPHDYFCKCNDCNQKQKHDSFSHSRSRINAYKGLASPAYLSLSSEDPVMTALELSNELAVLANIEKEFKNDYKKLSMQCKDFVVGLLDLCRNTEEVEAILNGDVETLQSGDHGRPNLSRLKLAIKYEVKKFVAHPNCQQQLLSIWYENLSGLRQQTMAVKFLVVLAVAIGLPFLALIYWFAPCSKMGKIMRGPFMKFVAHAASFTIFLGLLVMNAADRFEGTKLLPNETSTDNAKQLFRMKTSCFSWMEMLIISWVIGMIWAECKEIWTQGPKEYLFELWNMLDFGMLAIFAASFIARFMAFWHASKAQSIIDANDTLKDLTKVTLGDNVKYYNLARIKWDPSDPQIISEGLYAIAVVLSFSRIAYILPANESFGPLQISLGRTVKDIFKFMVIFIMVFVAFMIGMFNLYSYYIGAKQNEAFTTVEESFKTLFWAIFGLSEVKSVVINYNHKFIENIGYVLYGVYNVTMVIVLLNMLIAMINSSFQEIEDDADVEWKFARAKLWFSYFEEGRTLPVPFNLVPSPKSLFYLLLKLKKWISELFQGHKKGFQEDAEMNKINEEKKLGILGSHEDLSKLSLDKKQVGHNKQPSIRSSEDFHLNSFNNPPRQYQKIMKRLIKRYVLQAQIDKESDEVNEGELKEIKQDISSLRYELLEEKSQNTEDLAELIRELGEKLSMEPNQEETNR
Assay type: cell-based
Method in brief: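 IC50 derived by plotting background-corrected peak fluorescence (180 s window, normalized to OAG-triggered signal vs buffer) against dose. Stable human TRPC6 HEK293 line was dye-loaded, exposed to compound 25 min, then challenged with 50 uM final OAG in 2 mM Ca2+ HEPES buffer pH 7.2, 0.5% DMSO.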

**Q.** With CCC1COCCN1C(=O)Cn1c(N2CC[C@@H](F)[C@H](N)C2)nc2ccc(F)cc21 (stereo partly drawn) [Example 684, 2-(2-((3R,4R)-3-amino-4-fluoropiperidin-1-yl)-6-fluoro-1H-benzo[d]imidazol-1-yl)-1-(3-ethylmorpholino)ethan-1-one] as the compound, how does the IC50 read?
**A.** 524 nM

**Q.** For COc1ccc2nc(N3CCC[C@H](N)C3)n(Cc3ccc(C#N)cc3)c2c1 [Example 402, (S)-4-((2-(3-aminopiperidin-1-yl)-6-methoxy-1H-benzo[d]imidazol-1-yl)methyl)benzonitrile hydrochloride], which IC50 is on record?
**A.** 1.33 nM

**Q.** Cc1nnc(Cn2c(N3CC[C@@H](F)[C@H](N)C3)nc3cc(F)c(F)cc32)n1C [Example 586, (3R,4R)-1-(1-((4,5-dimethyl-4H-1,2,4-triazol-3-yl)methyl)-5,6-difluoro-1H-benzo[d]imidazol-2-yl)-4-fluoropiperidin-3-amine] was tested. Which IC50 did it give?
**A.** 747 nM

**Q.** Which IC50 does the source give for Cc1nc(C)c(Cn2c(N3CC[C@@H](F)[C@H](N)C3)nc3cc(F)ccc32)s1 [Example 596, (3R,4R)-1-(1-((2,4-dimethylthiazol-5-yl)methyl)-5-fluoro-1H-benzo[d]imidazol-2-yl)-4-fluoropiperidin-3-amine] here?
**A.** > 3750 nM

**Q.** N#Cc1ccc(Cn2c(N3CC[C@H](CN)C3)nc3ccccc32)nc1 [Example 80, (R)-6-((2-(3-(aminomethyl)pyrrolidin-1-yl)-1H-benzo[d]imidazol-1-yl)methyl)nicotinonitrile hydrochloride] was tested. Which IC50 did it give?
**A.** 79.3 nM

**Q.** With COCCN(C(=O)Cn1c(N2CC[C@@H](F)[C@H](N)C2)nc2cc(F)c(F)cc21)C1CCS(=O)(=O)C1 (stereo partly drawn) [Example 538, 2-(2-((3R,4R)-3-amino-4-fluoropiperidin-1-yl)-5,6-difluoro-1H-benzo[d]imidazol-1-yl)-N-(1,1-dioxidotetrahydrothiophen-3-yl)-N-(2-methoxyethyl)acetamide] as the compound, how does the IC50 read?
**A.** > 3750 nM

**Q.** With Cc1cnc(Cn2c(N3CC[C@@H](F)[C@H](N)C3)nc3cc(F)c(F)cc32)s1 [Example 551, (3R,4R)-1-(5,6-difluoro-1-((5-methylthiazol-2-yl)methyl)-1H-benzo[d]imidazol-2-yl)-4-fluoropiperidin-3-amine] as the compound, how does the IC50 read?
**A.** 6.1 nM

**Q.** Which IC50 does the source give for N[C@@H]1CN(c2nc3ccccc3n2Cc2ncc(Cl)cn2)CC[C@H]1F [Example 195, (3R,4R)-1-(1-((5-chloropyrimidin-2-yl)methyl)-1H-benzo[d]imidazol-2-yl)-4-fluoropiperidin-3-amine] here?
**A.** 0.664 nM

**Q.** For COc1cc(F)cc2nc(N3CC[C@@H](F)[C@H](N)C3)n(CC(=O)N(C)CC(F)(F)F)c12 [Example 544, 2-(2-((3R,4R)-3-amino-4-fluoropiperidin-1-yl)-5-fluoro-7-methoxy-1H-benzo[d]imidazol-1-yl)-N-methyl-N-(2,2,2-trifluoroethyl)acetamide], which IC50 is on record?
**A.** > 3750 nM

**Q.** CC(=O)N1CCN(C(=O)Cn2c(N3CC[C@@H](F)[C@H](N)C3)nc3cc(F)c(F)cc32)CC1 [Example 540, 1-(4-acetylpiperazin-1-yl)-2-(2-((3R,4R)-3-amino-4-fluoropiperidin-1-yl)-5,6-difluoro-1H-benzo[d]imidazol-1-yl)ethan-1-one] was tested. Which IC50 did it give?
**A.** > 3750 nM

**Q.** Which IC50 does the source give for COc1ccc2c(c1)nc(N1CCC[C@H](N)C1)n2Cc1ccc(C#N)cn1 [Example 143, (S)-6-((2-(3-aminopiperidin-1-yl)-5-methoxy-1H-benzo[d]imidazol-1-yl)methyl)nicotinonitrile 2,2,2-trifluoroacetate] here?
**A.** 6.86 nM

**Q.** For N[C@@H]1CN(c2nc3cc(F)c(F)cc3n2CC(=O)N2CCC(C(=O)N3CCCC3)CC2)CC[C@H]1F [Example 529, 2-(2-((3R,4R)-3-amino-4-fluoropiperidin-1-yl)-5,6-difluoro-1H-benzo[d]imidazol-1-yl)-1-(4-(pyrrolidine-1-carbonyl)piperidin-1-yl)ethan-1-one], which IC50 is on record?
**A.** > 1750 nM

**Q.** C[C@H](c1ccc(C#N)cc1)n1c(N2CCC[C@H](N)C2)nc2ccccc21 [Example 313, 4-((R)-1-(2-((S)-3-aminopiperidin-1-yl)-1H-benzo[d]imidazol-1-yl)ethyl)benzonitrile hydrochloride] was tested. Which IC50 did it give?
**A.** 15800 nM

**Q.** With C[C@H](c1cccc2cccnc12)n1c(N2CC[C@@H](F)[C@H](N)C2)nc2cc(F)c(F)cc21 [Example 261, (3R,4R)-1-(5,6-difluoro-1-((1R)-1-(8-quinolinyl)ethyl)-1H-benzimidazol-2-yl)-4-fluoro-3-piperidinamine] as the compound, how does the IC50 read?
**A.** > 3750 nM

**Q.** With N[C@@H]1CN(c2nc3ccccc3n2Cc2ccc(F)cn2)CC[C@H]1F [Example 189, (3R,4R)-4-fluoro-1-(1-((5-fluoropyridin-2-yl)methyl)-1H-benzo[d]imidazol-2-yl)piperidin-3-amine] as the compound, how does the IC50 read?
**A.** 3.59 nM

**Q.** With CN(C)C(=O)Cn1c(N2CC[C@@H](F)[C@H](N)C2)nc2cc(F)c(F)cc21 [Example 278, 2-(2-((3R,4R)-3-amino-4-fluoro-1-piperidinyl)-5,6-difluoro-1H-benzimidazol-1-yl)-N,N-dimethylacetamide] as the compound, how does the IC50 read?
**A.** 737 nM

**Q.** How did the IC50 turn out when N[C@@H]1CN(c2nc3cc(F)c(F)cc3n2CC(=O)N(CC(F)F)C2CC2)CC[C@H]1F [Example 631, 2-(2-((3R,4R)-3-amino-4-fluoropiperidin-1-yl)-5,6-difluoro-1H-benzo[d]imidazol-1-yl)-N-cyclopropyl-N-(2,2-difluoroethyl)acetamide] was run?
**A.** 225 nM

**Q.** How did the IC50 turn out when N[C@@H]1CN(c2nc3ccccc3n2Cc2ncc(C(F)(F)F)cn2)CC[C@H]1F [Example 193, (3R,4R)-4-fluoro-1-(1-((5-(trifluoromethyl)pyrimidin-2-yl)methyl)-1H-benzo[d]imidazol-2-yl)piperidin-3-amine] was run?
**A.** 48.5 nM

**Q.** Which IC50 does the source give for Cc1cc2c(cc1F)nc(N1CC[C@@H](F)[C@H](N)C1)n2Cc1ccc(C#N)cn1 [Example 115, 6-((2-((3R,4R)-3-amino-4-fluoro-1-piperidinyl)-5-fluoro-6-methyl-1H-benzimidazol-1-yl)methyl)-3-pyridinecarbonitrile] here?
**A.** 0.446 nM

**Q.** How did the IC50 turn out when N#Cc1ccc(Cn2c(N3CCC[C@H](N)C3)nc3ccc(Cl)cc32)nc1 [Example 1, (S)-6-((2-(3-aminopiperidin-1-yl)-6-chloro-1H-benzo[d]imidazol-1-yl)methyl)nicotinonitrile] was run?
**A.** 0.696 nM

**Q.** How did the IC50 turn out when Cn1ncc2cccc(Cn3c(N4CC[C@@H](F)[C@H](N)C4)nc4cc(F)c(F)cc43)c21 [Example 264, (3R,4R)-1-(5,6-difluoro-1-((1-methyl-1H-indazol-7-yl)methyl)-1H-benzimidazol-2-yl)-4-fluoro-3-piperidinamine] was run?
**A.** 217 nM

**Q.** N#Cc1ccc(Cn2c(N3CC[C@H](O)[C@H](N)C3)nc3ccc(F)cc32)nc1 [Example 311, 6-((2-((3R,4S)-3-amino-4-hydroxypiperidin-1-yl)-6-fluoro-1H-benzo[d]imidazol-1-yl)methyl)nicotinonitrile] was tested. Which IC50 did it give?
**A.** 217 nM

**Q.** With CC1(C)CCCN1C(=O)Cn1c(N2CC[C@@H](F)[C@H](N)C2)nc2cc(F)c(F)cc21 [Example 310, 2-(2-((3R,4R)-3-amino-4-fluoropiperidin-1-yl)-5,6-difluoro-1H-benzo[d]imidazol-1-yl)-1-(2,2-dimethylpyrrolidin-1-yl)ethan-1-one] as the compound, how does the IC50 read?
**A.** 765 nM

**Q.** For CC(F)(F)c1ccc(Cn2c(N3CCC[C@@H](N)C3)nc3ccccc32)cc1 [Example 379, (R)-1-(1-(4-(1,1-difluoroethyl)benzyl)-1H-benzo[d]imidazol-2-yl)piperidin-3-amine], which IC50 is on record?
**A.** 4440 nM

**Q.** How did the IC50 turn out when C[C@H]1CCN(c2nc3ccccc3n2Cc2ccc(C#N)cc2)C[C@@H]1N [Example 182, 4-((2-((3R,4S)-3-amino-4-methylpiperidin-1-yl)-1H-benzo[d]imidazol-1-yl)methyl)benzonitrile 2,2,2-trifluoroacetate] was run?
**A.** 314 nM

**Q.** N[C@@H]1CN(c2nc3cc(F)cc(F)c3n2Cc2ncc(Cl)cn2)CC[C@H]1F [Example 257, (3R,4R)-1-(1-((5-chloro-2-pyrimidinyl)methyl)-5,7-difluoro-1H-benzimidazol-2-yl)-4-fluoro-3-piperidinamine] was tested. Which IC50 did it give?
**A.** 52.4 nM

**Q.** N#Cc1ccc(Cn2c(N3CCC[C@@]4(CCCN4)C3)nc3ccccc32)nc1 [Example 136, 6-((2-((5S)-1,7-diazaspiro[4.5]decan-7-yl)-1H-benzimidazol-1-yl)methyl)-3-pyridinecarbonitrile] was tested. Which IC50 did it give?
**A.** 13.9 nM

**Q.** For CNC(=O)c1ccc(Cn2c(N3CCC[C@@H](N)C3)nc3ccccc32)cc1 [Example 382, (R)-4-((2-(3-aminopiperidin-1-yl)-1H-benzo[d]imidazol-1-yl)methyl)-N-methylbenzamide], which IC50 is on record?
**A.** > 50000 nM

**Q.** How did the IC50 turn out when C[C@]1(N)CCCN(c2nc3ccccc3n2Cc2ccc(C#N)cn2)C1 [Example 141, 6-((2-((3S)-3-amino-3-methyl-1-piperidinyl)-1H-benzimidazol-1-yl)methyl)-3-pyridinecarbonitrile] was run?
**A.** 13.5 nM
